Patent US9428552B2, “Stem cell mobilization and tissue repair and regeneration” (Wellstat Therapeutics Corporation, priority 2012, dated 2016)
“Also recorded” adds a separate entry of the source. Ends that are not written are not given here. Peptide text beside a SMILES is read from it.

Key:
[1] = biological target: human recombinant DPPIV (Homo sapiens, UniProt P27487); assay: Hydrolysis of N-terminal by recombinant DPPIV; type: in vitro ADME; settings: previously shown
[2] = biological target: murine recombinant DPPIV (Mus musculus, UniProt P28843); assay: Hydrolysis of N-terminal by recombinant DPPIV; type: in vitro ADME; settings: previously shown
Chain of murine recombinant DPPIV (P28843 whole entry): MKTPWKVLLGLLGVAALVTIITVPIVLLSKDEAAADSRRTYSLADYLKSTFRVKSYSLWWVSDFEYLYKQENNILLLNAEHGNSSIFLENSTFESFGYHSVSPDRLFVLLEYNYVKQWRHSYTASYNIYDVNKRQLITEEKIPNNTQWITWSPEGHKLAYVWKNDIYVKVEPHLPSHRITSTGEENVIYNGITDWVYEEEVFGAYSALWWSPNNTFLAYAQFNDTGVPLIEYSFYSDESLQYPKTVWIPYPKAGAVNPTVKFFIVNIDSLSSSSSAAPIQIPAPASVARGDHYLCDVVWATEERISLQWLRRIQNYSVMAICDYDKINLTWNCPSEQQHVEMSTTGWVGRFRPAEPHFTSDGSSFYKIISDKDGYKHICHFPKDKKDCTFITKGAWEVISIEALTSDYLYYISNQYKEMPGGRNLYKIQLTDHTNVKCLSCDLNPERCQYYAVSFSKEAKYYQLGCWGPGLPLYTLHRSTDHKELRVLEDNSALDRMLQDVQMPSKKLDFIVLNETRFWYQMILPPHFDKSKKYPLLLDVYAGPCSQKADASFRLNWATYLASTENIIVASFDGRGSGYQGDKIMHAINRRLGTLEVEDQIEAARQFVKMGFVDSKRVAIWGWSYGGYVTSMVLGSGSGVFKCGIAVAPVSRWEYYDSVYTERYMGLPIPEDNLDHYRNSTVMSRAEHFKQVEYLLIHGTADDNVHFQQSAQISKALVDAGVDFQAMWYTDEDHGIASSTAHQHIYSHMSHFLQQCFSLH

[3] = Cleavage of peptide during 3 hr incubation with murine bone marrow cells (HPLC, MS); type: in vitro ADME; settings: 100 μg/ml, 37° C., absence of serum
Procedure: B6D2F1 mice (HSD) were treated with 100 mg/kg testosterone propionate 24 hr before being sacrificed, femurs were removed and bone marrow cells (BMC) were flushed from bone marrow cavity. BMC—5×10^6 cells/ml was resuspended in IMDM. Cell suspension was placed into 14-ml Falcon tubes (BD). Peptide Compound A, (Think Peptides) was added to cells at 100 μg/ml concentration. The appropriate volume of IMDM was added to another control supernatant tube containing 1 ml of cells. Cells were incubated for 3 hours at 37° C. After 3 hours of incubation, tubes were centrifuged, supernatants were collected and proteins with Mw>10 KD were eliminated by Amicon filtration at 3000 rpm 25 minutes. 0.5 ml of supernatant containing <10 Kd material was collected from each sample and heat inactivated during 10 min at t-70° C. The following samples were prepared for HPLC and MS: Control supernatant (<10 Kd); Supernatant from cells incubated with Compound A (<10 Kd); Compound A (50 μL) spiked into cell culture medium; and Compound C (50 μL) spiked into cell culture medium.

[4] = system: CFU-GEMM; assay: Effect of S1P gradient disruption (DOP) on mobilization after multiple subcutaneous injections; type: in vivo; settings: DBA/2J mice, DOP in glucose drinking water
Procedure: In this experiment the inhibitor of S1P lyase activity, 4-deoxypyridoxine (DOP, Sigma-Aldrich) was administrated to mice in the drinking water in order to test if disruption of S1P gradient has an effect on mobilization induced by Compound A. Fifteen week-old DBA/2J male mice (Jackson Laboratories) were divided into 4 groups of 4 mice each. All Mice received glucose drinking water (10 g/L) throughout the duration of the study. DOP ([…]) was added to the glucose water of two groups. Mice were subcutaneously injected for four consecutive days with 500 μg/kg of Compound A or Saline. At one-hour post injections on day 4, peripheral blood from mice was harvested from the orbital plexus using capillary tubes (VWR) and collected into EDTA-containing tubes (BD). To determine mobilization of colony-forming unit cells out of the peripheral blood, mononuclear cells were plated in mouse methylcellulose complete media (R&D Systems). The cells were placed into 35-mm Petri dishes at 100,000 cells per dish with 5 dishes per group. Cells incubated for 11 days in a 37° C. and 5% CO2 humidified incubator. CFU colonies were then scored using an inverted microscope.

[5] = system: EML-Cl cells; assay: CFU-GEMM number of EML cells after 3 hr serum and SCF deprivation; type: cell-based, murine; settings: for rescue of CFU-GEMM: serum and SCF deprivation, 10 μM
Procedure: Erythroid myeloid lymphoid (EML) cells are an established multipotent hematopoietic precursor cell line (EML-Cl) that can be maintained in medium including stem cell factor (SCF) and Horse serum (HS). When plated in methylcellulose with cocktail of growth factors EML cells form mixed colonies (CFUmix or CFU-GEMM) containing a mix of erythroid and myeloid cells that can be enumerated after 7 days of incubation.
Starvation of EML-Cl cell line cells of serum and SCF during 3 hr causes majority of CFUmix to develop apoptosis and die, which decreases their number growing in methylcellulose substantially.
EML cells were grown in IMDM with 10% HS and 100 ng/ml of SCF in IMDM and used for all experiments in exponential growth phase.
Cells were washed from serum and growth factor with IMDM two times, counted and placed into 12 ml polypropylene tubes 2×10^6 cells in 2 ml for 3 hr incubation at t-37° C. and 5% CO2.
Cell suspensions after the incubation were centrifuged, diluted 5 times with IMDM and counted using a hemacytometer. Cells were adjusted to 10^3 cells/mL in IMDM and cell suspension was placed into 50 mL tubes with 4.5 mL of Methylcellulose M3434 mixed well and seeded into 35-mm Petri dishes (Falcon BD351008) at 1 mL/dish. Cells were incubated at 37° C., 5% CO2.
CFU were scored using an inverted microscope after 7 days of incubation.

[6] = system: hindlimb ischemia; assay: Unilateral hindlimb ischemia by femoral artery ligation; type: in vivo; settings: C57/BL6 mice, day 9; peptide 250 μg/kg s.c., DFO 100 mg/kg i.m.
Excerpt: Ligation of the femoral artery in mice is an established model of hindlimb ischemia for testing treatments that might improve revascularization and functional recovery.
A total of 50 C57/B16 8-10 week old female mice were divided into 5 treatment groups (n=10/group).
• 1. Vehicle Control • 2. DFO (intramuscular) DFO (desferrioxamine) has been reported to improve revascularization by augmenting HIF-1α activation in sites of damage, to elicit secretion of local angiogenic factors and chemotactic signals that attract circulating repair-promoting stem and progenitor cells) • 3. DFO (intramuscular)+Compound C (subcutaneous) • 4. Compound A (subcutaneous) • 5. DFO (intramuscular)+Compound A (subcutaneous)
Mice were subjected to unilateral total ligation and transection of the femoral artery under anesthesia (2% Isoflurane mixed with 100% oxygen). A unilateral incision was made over the left medial thigh of each mouse. […]
On day 0, 4, 9, and 14, the condition of left hind limbs were evaluated with Muscle Function Score and Ischemia Score. […]
Recovery of circulation and function in the hindlimb ischemia model involves angiogenesis and revascularization, a process triggered by oxygen deficits. Revascularization was evaluated on day 14 after artery ligation by counting capillaries in cross sectional histology slides prepared from gastrocnemius muscles from both legs. […]

[7] = system: hematopoietic stem cells (HSC) and their hematopoietic progenitors (HPC); assay: Mobilization of stem cells into peripheral blood after single subcutaneous injection (colony-forming assay); type: in vivo; settings: DBA/2J mice, single 125 μg/kg dose, within one hour of administration
Procedure: Stimulatory doses of Compound A activate quiescent stem cells, induce them to proliferate and egress from bone marrow into peripheral blood. […]
After 1 hour, mice were anesthetized and blood was collected through the orbital sinus with heparinized capillary tubes. To enumerate HSC and HPC in peripheral blood, cells were washed, counted and plated in semi-solid Methylcellulose (Stem cell technology) at 100,000 per dish (5 dishes/group) and placed in CO2 incubator at 37° C. Colony-forming unit-granulocyte erythroid macrophage megakaryocyte (CFU-GEMM) and Colony-forming unit-granulocyte macrophage (CFU-GM) were detected under inverted microscope after 7-10 days in culture.

[8] = system: Caspase-3; assay: Caspase-3 fluorimetric assay in EML cell lysates after HS and SCF deprivation; type: cell-based, murine; settings: for Caspase-3 proteolytic activity, Exp 1 / Caspase-3 proteolytic activity, Exp 2 / Caspase-3 proteolytic activity, Exp 3 / Caspase-3 proteolytic activity, Sum of 3 experiments: 10 μM present during starvation, starvation control 100%; for Caspase-3 activation induced by HS and SCF deprivation: EML cells, peptide present during starvation
Procedure: To assess possible effect of Compound A and other peptides on Caspase-3 enzymatic activity during apoptosis induced by serum starvation fluorimetric assay Caspase-3 assay was performed according to the manufacturer's instructions (ApoAlert Clontech Mountain view CA).
Cell suspensions after the incubation were divided into two equal tubes (+/−Caspase inhibitor). Cells were centrifuged at 400×g for 5 min and re-suspend in chilled Cell Lysis Buffer with the following incubation on ice for 10 min., cell lysates were centrifugated in a microcentrifuge at max speed for 10 min at 4° C. and transferred into new tubes.
50 μl of 2× Reaction buffer/DTT mix and 1 μl of Caspase inhibitor added to 50 μl of cell lysate (+Inhibitor groups). 1 uL DMSO per 50 μL of 2× Reaction buffer was added to samples without inhibitor.
5 μL of the 1 mM Caspase-3 Substrate (DEVD-AFC; 50 μM final concentration) were added to each tube and incubated at t-37° C. for 1 hr in a water bath. All samples in duplicates were transferred to a 96 well plate. The plates were analyzed on a fluorescence plate reader (Spectramax Gemini.) at a 400 nm excitation and a 505 nm emission, and Caspase-3 activity was expressed relative to the medium control. Free AFC accumulation that resulted from cleavage of the asparatic-AFC bond monitored by fluorimeter and results in duplicates were recalculated according to the free AFC calibration curve.

[9] = system: CFU-GEMM and CFU-GM; assay: Mobilization of stem cells into peripheral blood after multiple subcutaneous injections; type: in vivo, mice; settings: dose response
Excerpt: This example is based on a protocol for a 5-day course of once-daily Compound A injections into DBA male mice similar to a G-CSF. […]
[…] At 7 days post initial injection, peripheral blood from 3 mice per group was harvested from the orbital plexus using capillary tubes (VWR) and collected into EDTA-containing tubes (VWR). Blood was also harvested and pooled from 3 naïve mice to serve as a naïve control group.

[10] = system: CFU-GEMM; assay: Mobilization of CFU-GEMM and CFU-GM in db/db mice with high glucose level; type: in vivo; settings: 5 mg/kg s.c.
Procedure: To test mobilizing effect of Compound A in db/db mice with high level of glucose the following experiment was conducted. BKS.Cg-Dock7m+/+Leprdb/J male mice (10 weeks old Jackson Laboratories, stock #000642) were subcutaneously injected with 0.9% saline (vehicle control), 5 mg/kg Compound C, or 10 mg/kg Compound A (ThinkPeptides) for 5 consecutive days. At 7 days post initial injection, peripheral blood from 3 mice per group was harvested from the orbital plexus using capillary tubes (VWR) and collected into EDTA-containing tubes (BD).

[11] = system: THP-1 cells; assay: Cytokine production by THP-1 cells in response to LPS; type: cell-based; settings: 4 hours, levels ranging from 1 μM down to 10 nM
Procedure: THP-1 cells activated with 0.2 μM vitamin-D3 (EMD Biosciences Inc) and cultured in cRPMI [RPMI plus 10% ΔFBS (both Lonza)] were transferred to 24-well dishes. Different concentrations of Compound A or related peptides were added (in triplicate) and the plate placed in a 37° C. incubator.
After 1 hour, crude-LPS from E. coli 0111:B4 (20 ng-100 ng/ml final conc) was added to some wells. Supernatant aliquots were taken after 4 hours and cytokine levels determined using a cytokine bead array kit (BD558277).

Chain of human recombinant DPPIV (P27487 whole entry): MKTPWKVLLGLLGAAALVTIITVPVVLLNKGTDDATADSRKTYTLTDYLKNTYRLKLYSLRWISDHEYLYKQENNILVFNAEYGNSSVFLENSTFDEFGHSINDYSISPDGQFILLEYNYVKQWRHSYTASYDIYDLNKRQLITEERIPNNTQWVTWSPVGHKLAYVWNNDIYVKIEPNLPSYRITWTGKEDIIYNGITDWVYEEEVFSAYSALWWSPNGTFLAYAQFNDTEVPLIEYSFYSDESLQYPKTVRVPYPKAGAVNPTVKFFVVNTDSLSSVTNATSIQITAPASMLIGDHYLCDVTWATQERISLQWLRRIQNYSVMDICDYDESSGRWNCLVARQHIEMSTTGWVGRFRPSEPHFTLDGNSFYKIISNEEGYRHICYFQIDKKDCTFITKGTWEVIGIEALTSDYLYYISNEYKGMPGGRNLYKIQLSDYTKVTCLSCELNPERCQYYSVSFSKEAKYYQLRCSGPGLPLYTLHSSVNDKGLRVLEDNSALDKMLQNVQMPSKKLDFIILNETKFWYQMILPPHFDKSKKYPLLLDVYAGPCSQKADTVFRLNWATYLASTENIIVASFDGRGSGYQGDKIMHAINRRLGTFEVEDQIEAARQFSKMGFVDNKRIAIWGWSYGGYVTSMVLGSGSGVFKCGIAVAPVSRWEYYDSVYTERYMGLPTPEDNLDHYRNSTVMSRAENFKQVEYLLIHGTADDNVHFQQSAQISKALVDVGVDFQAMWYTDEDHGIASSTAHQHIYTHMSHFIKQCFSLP

Compound: CC(C)C[C@H](NC(=O)[C@H](CC(=O)O)NC(=O)[C@H](Cc1ccccc1)NC(=O)[C@H](Cc1c[nH]cn1)NC(=O)[C@@H]1CCCN1C(=O)[C@@H](N)Cc1ccccc1)C(=O)N[C@@H](CO)C(=O)N[C@@H](Cc1c[nH]cn1)C(=O)NCC(=O)N[C@@H](CO)C(=O)N[C@@H](C)C(=O)N[C@@H](CCC(N)=O)C(=O)N[C@H](C(=O)N[C@@H](CO)C(=O)N[C@@H](CC(=O)O)C(=O)N[C@@H](CCCCN)C(=O)N1CCC[C@H]1C(=O)O)C(C)C [Compound A, Phe-Pro-His-Phe-Asp-Leu-Ser-His-Gly-Ser-Ala-Gln-Val-Ser-Asp-Lys-Pro] (H-FPHFDLSHGSAQVSDKP-OH; N-terminus and C-terminus assumed)
- hydrolysis of N-terminal by human recombinant DPPIV [1]: can be hydrolyzed
- hydrolysis of N-terminal by murine recombinant DPPIV [2]: can be hydrolyzed
- cleavage after incubation with murine bone marrow cells [3]: proteolyses of the peptide was registered

Compound: Cc1ncc(CO)c(C)c1O [DOP, 4-deoxypyridoxine]
- mobilization of colony forming cells into peripheral blood [4]: decreased mobilization

Compound: CCCCCCCCCCCCC/C=C/[C@@H](O)[C@@H](N)COP(=O)(O)O [Compound S1P, Sphingosine 1-phosphate]
- rescue of CFU-GEMM [5]: rescued CFU-GEMM

Compound: FC(F)(F)c1cccc(-c2noc(-c3cc(-c4ccccc4)c(C(F)(F)F)s3)n2)c1 [SEW2871]
- rescue of CFU-GEMM [5]: rescued CFU-GEMM

Compound: JTE-013
- rescue of CFU-GEMM [5]: rescued CFU-GEMM

Compound: CC(=O)N(O)CCCCCNC(=O)CCC(=O)N(O)CCCCCNC(=O)CCC(=O)N(O)CCCCCN [DFO, desferrioxamine]
- Muscle Function Score [6]: maintained impairment

Compound: CCCCCCCCCCCC1N[C@H](C(=O)O)CS1 (stereo partly drawn) [CAY10444]
- rescue of CFU-GEMM [5]: rescued CFU-GEMM

Compound: FPHFDLSHGSAQV [Compound C, included for comparison with the oligopeptides of this invention]
- rescue of colony-forming cells (CFUmix/CFU-GEMM) during starvation ([5]; 3 hr HS and SCF deprivation, compared with combined HS and SCF): rescued colony-forming cells
- increase in CFU-GEMM numbers [7]: two-fold
- Caspase-3 proteolytic activity, Exp 1 [8]: 66%
- Caspase-3 proteolytic activity, Exp 2 [8]: 83%
- Caspase-3 proteolytic activity, Exp 3 [8]: 53%
- Caspase-3 proteolytic activity, Sum of 3 experiments [8]: 67.3 +/− 15%
- Caspase-3 activation induced by HS and SCF deprivation [8]: prevented Caspase-3 activation
- dose with the best effect on CFU-GEMM mobilization [9]: 0.75 mg/kg
- CFU-GEMM / progenitor cell mobilization into peripheral blood [10]: did not cause CFU-GEMM mobilization; also recorded: did not mobilize progenitor cells

Compound: N-acetyl-Ser-Asp-Lys-Pro (Ac-SDKP) [AcSDKP]
- TNFα secretion [11]: strongly inhibited
- Caspase-3 proteolytic activity, Exp 1 [8]: 70%
- Caspase-3 proteolytic activity, Exp 2 [8]: 84%
- Caspase-3 proteolytic activity, Exp 3 [8]: 65%
- Caspase-3 proteolytic activity, Sum of 3 experiments [8]: 73 +/− 9.8%
- Caspase-3 activation induced by HS and SCF deprivation [8]: prevented Caspase-3 activation
